Consider 10 compounds from patent US5250542A, “Peripherally selective piperidine carboxylate opioid antagonists” (Eli Lilly and Company, priority 1992, dated 1993).

Where a name gives a salt, the structure may show the parent alone. Read-outs that look alike come from different tables or passages of the source.

The target of experiment [1] is T1, peripheral opioid receptors (Mus musculus, UniProt P42866).
T1 construct: Mice maintained (6 mice/cage) on 0.01M saccharin water with 1 g/1 morphine sulfate; from tissue; host or cells: living morphine-maintained mice (in vivo test; endogenous receptor)
T1 sequence (P42866 whole entry): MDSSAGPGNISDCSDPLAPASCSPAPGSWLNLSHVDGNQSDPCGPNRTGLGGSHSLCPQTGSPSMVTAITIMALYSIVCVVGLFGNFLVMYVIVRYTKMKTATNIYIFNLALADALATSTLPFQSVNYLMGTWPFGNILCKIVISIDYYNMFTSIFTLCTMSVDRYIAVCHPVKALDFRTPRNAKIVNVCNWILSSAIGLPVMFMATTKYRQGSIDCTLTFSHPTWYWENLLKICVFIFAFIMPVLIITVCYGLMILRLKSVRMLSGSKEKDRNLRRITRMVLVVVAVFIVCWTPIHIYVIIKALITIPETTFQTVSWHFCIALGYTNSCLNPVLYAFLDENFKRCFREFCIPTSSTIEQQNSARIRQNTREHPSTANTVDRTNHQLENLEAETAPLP
As to the kind of experiment: precipitated diarrhea in morphine-maintained mice (peripheral opioid activity) and comparison with the writhing test. The experiment is classed as in vivo. Particulars: for Ratio (AD50 mouse writhing test / ED50 mouse diarrhea test): higher ratio = greater relative antagonism of peripheral opioid receptors; for ED50: mouse, 0.5 h, morphine-maintained mice, antagonist subcutaneous or oral, 30 min observation. In short, it runs like this: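 Morphine-dependent mice (1 g/l morphine sulfate in drinking water ≥10 days, withdrawn 45 min before dosing) received antagonist subcutaneously or orally, 5 mice/dose. Diarrhea (and jumping) were scored over 30 min and doses lowered to find the diarrhea threshold. Peripheral selectivity was taken as writhing AD50 divided by diarrhea ED50.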

For a further experiment, the target named is T2, mu receptor (Rattus norvegicus, UniProt P33535).
T2 construct: rat whole brain minus cerebellum for mu was homogenized; from tissue; host or cells: brain of male Sprague Dawley rats, whole brain minus cerebellum, homogenate fraction
T2 sequence (P33535 whole entry): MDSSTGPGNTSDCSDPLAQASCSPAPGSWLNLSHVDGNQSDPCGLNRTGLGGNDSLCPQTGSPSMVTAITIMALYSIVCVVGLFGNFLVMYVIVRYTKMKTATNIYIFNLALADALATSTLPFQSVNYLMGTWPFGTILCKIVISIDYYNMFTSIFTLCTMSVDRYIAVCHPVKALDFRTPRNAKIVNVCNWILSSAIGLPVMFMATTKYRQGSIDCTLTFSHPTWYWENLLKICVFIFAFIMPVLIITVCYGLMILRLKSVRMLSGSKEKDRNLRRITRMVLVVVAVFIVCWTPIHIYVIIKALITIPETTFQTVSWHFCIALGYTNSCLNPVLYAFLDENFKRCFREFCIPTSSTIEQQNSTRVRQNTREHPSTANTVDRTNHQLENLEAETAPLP
As to the kind of experiment: opioid receptor binding assay, [3H] NAL (tritiated naloxone), mu receptor. More on the design: species or system rat (Male Sprague Dawley), brain minus cerebellum. Put shortly: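 Displacement of [3H]naloxone was measured on rat whole brain minus cerebellum membranes, preincubated 20 min and incubated 20 min at 37° C, with filtration separating bound ligand. Ki was derived from IC50 and ligand KD. Percent displacement was also recorded at 10 nM and 100 nM test compound.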

Another experiment addresses T3, opioid receptor (Mus musculus, UniProt P42866).
T3 construct: Five CF-1 male mice (Charles River, Portage, Mich.); from tissue; host or cells: living CF-1 male mice (in vivo test; endogenous receptor)
The experiment in a line: mouse writhing analgesis test: block of morphine-induced analgesia. It counts as in vivo, CF-1 male mice. More on the design: unit not given here. Particulars: dose of antagonist that reduced the inhibition of writhing produced by 1.25 mg/kg morphine sulfate to 50%; subcutaneous, 20 min before acetic acid. Put shortly: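 Male CF-1 mice (~20 g, fasted overnight, n=5) dosed subcutaneously 20 min before i.p. 0.6% acetic acid; writhes counted for 10 min starting 5 min post-injection. Antagonism measured as blockade of morphine-induced inhibition of writhing, percent versus vehicle controls; ED50 defined as 50% writhing inhibition.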

Setting [2] is: 20 min, read-out: % displacement at 10 nM, 10 nM test compound, [3H] naloxone 0.5 nM.
[3] abbreviates: 20 min, read-out: % displacement at 100 nM.
[4] abbreviates: 20 min, read-out: % displacement at 10 nM.
Where [5] appears, read: 20 min, read-out: % displacement at 100 nM, 100 nM test compound, [3H] naloxone 0.5 nM.

T3 sequence (P42866 whole entry): as the sequence (P42866 whole entry) above

For the compound `CC(C)COC(=O)CNC(=O)C(Cc1ccccc1)CN1CC[C@@](C)(c2cccc(O)c2)[C@@H](C)C1` (stereo partly shown) [Example 54, 2-[2-(phenylmethyl)-1-oxo-3-4-(3-hydroxyphenyl)-3,4-dimethyl-1-piperidinyl]propyl]amino]-ethanoic acid 2-methylpropyl ester monohydrochloride], in experiment [1], the “Ratio (AD50 mouse writhing test / ED50 mouse diarrhea test)” value came to 1150 and the 50% effect level (ED50) was put at a dose of 0.02 mg/kg. Also, at mu receptor (setting [2]), the inhibition at 0.01 µM amounted to 78%. For the same compound, the inhibition at 0.1 µM on mu receptor (setting [3]) was 98%. At mu receptor ([3H] naloxone 0.5 nM, pH 7.4, 37° C., 20 min), this compound yielded an inhibition constant Ki of 2.27 nM. Also, the AD50 on opioid receptor turned out to be 23.
Consider `C[C@H]1CN(CC(Cc2ccccc2)C(=O)NCC(=O)OCc2ccccc2)CC[C@@]1(C)c1cccc(O)c1` (stereo partly shown) [Example 55, 2-[[2-(phenylmethyl)-1-oxo-3-[4-(3-hydroxyphenyl)3,4-dimethyl-1-piperidinyl]propyl]amino]-ethanoic acid phenylmethyl ester hydrochloride], for which, in experiment [1], the “Ratio (AD50 mouse writhing test / ED50 mouse diarrhea test)” value turned out to be 63 and the ED50 is 0.12 mg/kg. Besides, the inhibition at 0.01 µM at mu receptor (setting [4]) stood at 83%. Also, on mu receptor (setting [3]), the inhibition at 0.1 µM worked out at 97%. The compound further returned an AD50 at opioid receptor of 7.5.
Regarding `C[C@H]1CN(CC(Cc2ccccc2)C(=O)NCCC(=O)OCc2ccccc2)CC[C@@]1(C)c1cccc(O)c1` (stereo partly shown) [Example 56, hydrochloride], in experiment [1], the “Ratio (AD50 mouse writhing test / ED50 mouse diarrhea test)” value amounted to 667 and the 50% effect level (ED50) was put at a dose of 0.06 mg/kg. The Ki on mu receptor amounted to 0.49 nM. Besides, the inhibition at 0.01 µM on mu receptor (setting [2]) amounted to 97%. In addition, the inhibition at 0.1 µM at mu receptor (setting [3]) was 98%. On opioid receptor, this compound returned an AD50 of 40.
Take `C[C@H]1CN(CC(Cc2ccccc2)C(=O)NCCC(=O)O)CC[C@@]1(C)c1cccc(O)c1` (stereo partly shown) [Example 57, monohydrate]: in experiment [1], the “Ratio (AD50 mouse writhing test / ED50 mouse diarrhea test)” value was over 400 and the ED50 was 0.1 mg/kg. Further, the Ki at mu receptor worked out at 0.5 nM. At mu receptor (setting [4]), the inhibition at 0.01 µM was 92%. For the same compound, at mu receptor (setting [3]), the inhibition at 0.1 µM was 98%. The AD50 at opioid receptor is over 40.
For `CNC(=O)CCNC(=O)C(Cc1ccccc1)CN1CC[C@@](C)(c2cccc(O)c2)[C@@H](C)C1` (stereo partly shown) [Example 59, N-(methyl)-3-[[3-[4-(3-hydroxyphenyl)-3,4-dimethyl-1-piperidinyl]-2-(phenylmethyl)-1-oxopropyl]amino]propanamide monohydrochloride], in experiment [1], the “Ratio (AD50 mouse writhing test / ED50 mouse diarrhea test)” value was found to be 11 and the ED50 turned out to be 0.54 mg/kg. At mu receptor, this compound came in with a Ki of 4.64 nM. Besides, the inhibition at 0.01 µM at mu receptor (setting [2]) was determined as 88%. Moreover, the inhibition at 0.1 µM on mu receptor (setting [5]) worked out at 100%. On opioid receptor, the AD50 came to 5.9.
`CCNC(=O)CCNC(=O)C(Cc1ccccc1)CN1CC[C@@](C)(c2cccc(O)c2)[C@@H](C)C1` (stereo partly shown) [Example 60, N-(ethyl)-3-[[3-[4-(3-hydroxyphenyl)-3,4-dimethyl-1-piperidinyl]-2-(phenylmethyl)-1-oxopropyl]amino]propanamide monohydrochloride]: in experiment [1], the “Ratio (AD50 mouse writhing test / ED50 mouse diarrhea test)” value is reported as 112 and the ED50 turned out to be 0.1 mg/kg. The compound also displayed a Ki on mu receptor of 1.89 nM. The inhibition at 0.01 µM at mu receptor (setting [2]) was found to be 100%. Further, the inhibition at 0.1 µM at mu receptor (setting [5]) was found to be 100%. Also, the AD50 on opioid receptor came to 11.2.
Take `CNC(=O)CCCNC(=O)C(Cc1ccccc1)CN1CC[C@@](C)(c2cccc(O)c2)[C@@H](C)C1` (stereo partly shown) [Example 62, N-(methyl)-4-[[3-]4-(3-hydroxyphenyl)-3,4-dimethyl-1-piperidinyl]-2-(phenylmethyl)-1-oxopropyl]amino]butanamide monohydrochloride monohydrate]: in experiment [1], the “Ratio (AD50 mouse writhing test / ED50 mouse diarrhea test)” value was 122 and the 50% effect level (ED50) was put at a dose of 0.15 mg/kg. Also, the affinity on mu receptor, expressed as Ki, was 1.18 nM. Also, the inhibition at 0.01 µM on mu receptor (setting [2]) came out at 89%. In addition, the inhibition at 0.1 µM at mu receptor (setting [3]) turned out to be 98%. Also, at opioid receptor, the AD50 turned out to be 18.3.
Consider `C[C@H]1CN(CC(Cc2ccccc2)C(=O)NCCCC(N)=O)CC[C@@]1(C)c1cccc(O)c1` (stereo partly shown) [Example 63, 4-[[3-[4-(3-hydroxyphenyl)-3,4-dimethyl-1-piperidinyl]-2-(phenylmethyl)-1-oxopropyl]-amino]butanamide monohydrochloride], for which, in experiment [1], the “Ratio (AD50 mouse writhing test / ED50 mouse diarrhea test)” value worked out at 90 and the ED50 is 0.29 mg/kg. The same compound returned a Ki on mu receptor of 2 nM. In addition, the inhibition at 0.01 µM on mu receptor (setting [2]) was 89%. In addition, at mu receptor (setting [5]), the inhibition at 0.1 µM was determined as 100%. On opioid receptor, this compound had an AD50 of 26.
Take `CCNC(=O)CCCNC(=O)C(Cc1ccccc1)CN1CC[C@@](C)(c2cccc(O)c2)[C@@H](C)C1` (stereo partly shown) [Example 64, N-(ethyl)-4-[[3-4-(3-hydroxyphenyl)-3,4-dimethyl-1-piperidinyl]-2-(phenylmethyl)-1-oxopropyl]amino]butanamide monohydrochloride]: in experiment [1], the “Ratio (AD50 mouse writhing test / ED50 mouse diarrhea test)” value is listed as over 45 and the ED50 came out at 0.9 mg/kg. Also, the Ki at mu receptor amounted to 1.23 nM. For the same compound, the inhibition at 0.01 µM on mu receptor (setting [2]) was 94%. Moreover, the inhibition at 0.1 µM at mu receptor (setting [5]) was 100%. For the same compound, the AD50 at opioid receptor is on record as over 40.
As for `CCOC(=O)CN(C)C(=O)C(Cc1ccccc1)CN1CC[C@@](C)(c2cccc(O)c2)[C@@H](C)C1` (stereo partly shown) [Example 65, [[2-[[4-(3-hydroxyphenyl)-3,4-dimethyl-1-piperidinyl]methyl]-1-oxo-3-phenylpropyl]-methylamino]acetic acid ethyl ester monohydrochloride], in experiment [1], the “Ratio (AD50 mouse writhing test / ED50 mouse diarrhea test)” value is listed as 3 and the 50% effect level (ED50) was put at a dose of 0.92 mg/kg. Moreover, the inhibition at 0.01 µM on mu receptor (20 min, 10 nM test compound, [3H] naloxone 0.5 nM, read-out: % displacement at 10 nM) was determined as 57%. For the same compound, on mu receptor (20 min, 100 nM test compound, [3H] naloxone 0.5 nM, read-out: % displacement at 100 nM), the inhibition at 0.1 µM is 95%. The AD50 at opioid receptor is 2.8.
